According to PubChem BioAssay AID1053121 (Broad Institute, 2014):
Several values for one entry are separate records, joined by “and”; a condition that tells them apart may be missing. Equal entries are not always repeated. Activity calls are given as the source filed them.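 How the source made its calls: active means fitted curve reaches 40% activation below the top valid dose in every replicate test, signal rising; inconclusive means replicate tests disagree on the call; inactive means all replicate tests inactive, including opposite-direction effects.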

system: D54 ERlucT glioma cells, NLG luciferase reporter gain-of-signal, 24 h; experiment: glycosylation-sensitive ERlucT reporter luminescence gain – D54 ERlucT glioma cells, dry powder, set 6, N-linked glycosylation inhibitor project, dose response (AID 1053121); conditions: not given

Compound	AC40
COc1cc(Nc2c3c(nc4ccccc24)CCCC3)cc(OC)c1OC	3590 nM
Cc1ccc(NC(=O)c2cc(S(=O)(=O)N(C)C)ccc2N2CCCC2)cc1	1240 nM
Cc1cnc(NC(=O)c2cc(S(=O)(=O)N(C)C)ccc2C2CCCC2)s1	2210 nM
COc1cc(C(=O)NCCOc2cc(C)cc(C)c2)cc(OC)c1OC	1850 nM
CCCOC(=O)c1[nH]c2c(c1C)C(=O)CC(c1cccs1)C2 (configuration not stated)	1500 nM
Cc1cnc(NC(=O)c2cc(S(=O)(=O)N3CCOCC3)ccc2N2CCCC2)s1	307 nM
CN(C)S(=O)(=O)c1ccc(N2CCCC2)c(C(=O)Nc2cccc(F)c2)c1	2610 nM
CN(C)S(=O)(=O)c1ccc(N2CCCC2)c(C(=O)Nc2nc3ccccc3s2)c1	467 nM
Cc1cnc(NC(=O)c2cc(S(=O)(=O)N(C)C)ccc2N2CCCC2)s1	421 nM and 69.3 nM and 209 nM
Cc1cnc(NC(=O)c2cc(S(=O)(=O)NCc3ccccc3)ccc2N2CCCC2)s1	3670 nM
Cc1cnc(NC(=O)c2cc(S(=O)(=O)N(C)C)ccc2N(C)C)s1	5200 nM
Cc1cnc(NC(=O)c2cc(S(=O)(=O)N(C)C)ccc2N2CCC2)s1	364 nM
Cc1cccc(C)c1OCCNC(=O)C(=O)NCc1ccco1	3620 nM
CC(=O)N[C@H]1[C@@H](O[C@@H]2OC(C[C@@H](O)C3O[C@@H](n4ccc(=O)[nH]c4=O)[C@H](O)[C@@H]3O)[C@H](O)[C@H](O)[C@H]2NC(=O)/C=C/CCCCCCCCCCC(C)C)O[C@H](CO)[C@@H](O)[C@@H]1O (some centres not stated)	278 nM
CCN(CC)S(=O)(=O)c1ccc(N2CCCC2)c(C(=O)Nc2ncc(C)s2)c1	12000 nM
Cc1[nH][nH]c(=O)c1C(c1ccc(-c2ccc(Cl)c(Cl)c2)o1)c1c(C)[nH][nH]c1=O	1020 nM
CC(=O)N1CCC(=O)c2cc3ccccc3cc21	2420 nM
Cc1ccc(Oc2ccc(S(=O)(=O)N3CCOCC3)cc2C(N)=O)c(-n2nc3ccccc3n2)c1	3400 nM
CCN(CC)c1ccc(S(=O)(=O)N(C)C)cc1C(=O)Nc1ncc(C)s1	3210 nM
COc1cccc(N2CCN(C(=O)c3ccc(CS(=O)c4ccc(C)cc4)o3)CC2)c1 (configuration not stated)	237 nM
Cc1ccc(CCC(=O)Nc2ncc(Cc3cc(Cl)ccc3Cl)s2)o1	205 nM
CCOC(=O)c1ccc(Oc2cc(C)nc(SC)n2)cc1	3890 nM
CC(=O)c1ccc(Oc2cc(C)nc(-n3nc(C)cc3C)n2)cc1	645 nM
CCN(CC)CCOc1ccc2c(c1)C(=NNC(=O)c1ccccn1)c1cc(OCCN(CC)CC)ccc1-2	3070 nM
COC(=O)c1cn(C(=O)c2ccc(OC)cc2)c2ccccc12	1210 nM
CCC1=Nc2cc(C(=O)NCCCOC)ccc2Sc2ccccc21	404 nM
COc1ccc(NC(=O)c2cc(S(=O)(=O)N(C)C)ccc2N2CCCC2)cc1	10300 nM

Compound	AC40
COc1ccc(NC(=O)C(=O)c2cn(CC(=O)N3CCCC3)c3ccccc23)cc1	62.1 nM
Cc1nnc(NC(=O)c2cc(S(=O)(=O)N(C)C)ccc2N2CCCC2)s1	4570 nM
CCN(CC)CCCNc1nc2cc(OC)c(OC)cc2c2nc(-c3ccccc3)nn12	1660 nM
CCn1c2ccccc2c2cc(NC(=O)c3cc(OC)c(OC)c(OC)c3)ccc21	41.9 nM
CCOC(=O)COc1cccc2c(=O)n(CC(=O)NCc3ccccc3)ccc12	121 nM
COc1cc(-c2nnc(SCC3(c4ccc(Br)cc4)OCCO3)o2)cc(OC)c1OC	1340 nM
Cc1cnc(NC(=O)c2cc(S(=O)(=O)N3CCCCC3)ccc2N2CCCC2)s1	7070 nM
Cc1ccc2cc(CN(CCCN(C)C)C(=O)NCc3ccccc3)c(=O)[nH]c2c1C	2680 nM
Cc1cnc(NC(=O)c2cc(S(=O)(=O)N(C)C)ccc2N2CCCCC2)s1	13700 nM
CCOc1ccc(NC(=O)c2cc(OC)nc3ccccc23)cc1	410 nM
CCCCOc1ccccc1C1CC(=O)NC2=C1C(=O)CCC2 (configuration not stated)	948 nM
Cc1ccc(/C=N/NC(=O)C2COc3ccccc3O2)s1 (configuration not stated)	1210 nM
CCN(CC)CCC(=O)Nc1cccc2c1C(=O)c1ccccc1C2=O	729 nM
CN(C)S(=O)(=O)c1ccc(N2CCCC2)c(C(=O)Nc2ccccc2)c1	1080 nM
CCOc1ccc(S(=O)(=O)NCc2ccccn2)cc1NC(=O)c1ccccc1F	1370 nM
CC(=O)c1cccc(NC(=O)CSc2ncc(C(=O)Nc3ccccc3)c(=O)n2C)c1	6870 nM
Cc1cnc(NC(=O)c2cc(S(=O)(=O)N3CCNCC3)ccc2N2CCCC2)s1	9460 nM
Nc1nc(=S)c2ncn([C@@H]3O[C@H](CO)[C@@H](O)[C@H]3O)c2[nH]1	771 nM
Cc1cc(NC(=O)CSc2nc(-c3ccco3)cc(C(F)(F)F)n2)no1	434 nM
Cc1cc(C)cc(C(=O)N2CC(=O)Nc3ccccc32)c1	12100 nM
Cc1ccc(C(=O)c2cc([N+](=O)[O-])ccc2N2CCOCC2)cc1C	1100 nM
Cc1csc(NC(=O)c2cc(S(=O)(=O)N(C)C)ccc2N2CCCC2)n1	575 nM
Cc1cnc(NC(=O)c2cc(S(=O)(=O)N3CCCC3)ccc2N2CCCC2)s1	934 nM
CN(C)S(=O)(=O)c1ccc(N2CCCC2)c(C(=O)Nc2nccs2)c1	1910 nM
O=C(N/N=C/c1ccc(Cl)cc1)c1sccc1OCc1ccc(F)cc1	839 nM
COc1ccccc1OCC(=O)NNC(=O)c1ccoc1C	633 nM

system: not listed separately; experiment: as above; conditions: D54 ERlucT glioma cells, NLG luciferase reporter gain-of-signal, 24 h; at 19.5 µM (top of the series)

Compound	activation (reporter increase)
C/C(=N\NC(=O)c1c([N+](=O)[O-])c(C)nn1C)c1ccc(NC(=O)C2CCCC2)cc1	-76.5% (inactive)
COc1ccccc1CSc1nnc(-c2ccccc2)o1	-67.6% (inactive)
Cc1cnc(NC(=O)c2cc(S(=O)(=O)N(C)C)ccc2N2CCNCC2)s1	-10.1% (inactive)
Cc1nc(NC(=O)c2cc(S(=O)(=O)N(C)C)ccc2N2CCCC2)n[nH]1	14.6% (inactive)
O=C1CCN(Cc2ccccc2)c2cc3ccccc3cc21	30.6% (inactive)
COc1cccc2sc(NC(=O)c3cc(S(=O)(=O)N(C)C)ccc3N3CCCC3)nc12	5.88% (inactive)
Cc1cnc(NC(=O)c2cccc(S(=O)(=O)N(C)C)c2)s1	-7.17% (inactive)
CN(C)C(=O)c1cc(S(=O)(=O)N(C)C)ccc1N1CCCC1	8.83% (inactive)
Cc1ccc2cc(CN(CCCN(C)C)C(=O)Nc3ccccc3)c(=O)[nH]c2c1C	-11.1% (inactive)
CN(C)S(=O)(=O)c1ccc(N2CCCC2)c(C(=O)Nc2ccc(Br)cc2)c1	32% (inactive)
CN(C)CCCN(Cc1cc2ccccc2[nH]c1=O)C(=O)Nc1ccccc1	-2.22% (inactive)
COc1ccccc1-c1nnc(SCc2ccccc2)o1	-20.7% (inactive)
CN(C)S(=O)(=O)c1ccc(N2CCCC2)c(C(=O)Nc2ccncc2)c1	16.1% (inactive)
O=C1CCNc2cc3ccccc3cc21	-83.9% (inactive)
O=C(Cc1ccccc1)c1nnc(-c2ccccc2)o1	-94.1% (inactive)
COc1ccccc1NC(=O)c1cc(S(=O)(=O)N(C)C)ccc1N1CCCC1	30.1% (inactive)
COc1ccc2c(COC(=O)c3cccc(S(=O)(=O)NCC(C)C)c3)cc(=O)oc2c1	19.5% (inactive)

Compound	activation (reporter increase)
Cc1cnc(NC(=O)c2cc(S(=O)(=O)N(C)c3ccccc3)ccc2N2CCCC2)s1	10.9% (inactive)
CN(C)S(=O)(=O)c1ccc(N2CCCC2)c(C(=O)Nc2cccnc2)c1	48.4% (inactive)
c1ccc(CSc2nnc(-c3ccccc3)o2)cc1	-94.1% (inactive)
CN(C)S(=O)(=O)c1ccc(N2CCCC2)c(C(=O)N2CCOCC2)c1	3.4% (inactive)
Cc1cnc(NC(=O)c2cc(S(=O)(=O)N(CC(C)C)CC(C)C)ccc2N2CCCC2)s1	-35.5% (inactive)
CN(C)S(=O)(=O)c1ccc(N2CCCC2)c(C(=O)Nc2ccccc2F)c1	-4.62% (inactive)
COc1ccc2sc(NC(=O)c3cc(S(=O)(=O)N(C)C)ccc3N3CCCC3)nc2c1	29.4% (inactive)
Brc1ccc(CSc2nnc(-c3ccccc3)o2)cc1	-58.8% (inactive)
COc1ccc(CSc2nnc(-c3ccccc3)o2)cc1	-76.5% (inactive)
Cc1cc(C)nc(/N=C(\N)Nc2ccc(OCc3ccccc3)cc2)n1	-50% (inactive)
COc1ccc(-c2nnc(SCc3ccccc3)o2)cc1	-91.2% (inactive)
Cc1cc(=O)[nH]c(N/N=C/c2cc(C)n(CC(F)(F)F)c2C)n1	-91.2% (inactive)
Cc1ccccc1NC(=O)c1cc(S(=O)(=O)N(C)C)ccc1N1CCCC1	8.74% (inactive)
CN(C)S(=O)(=O)c1ccc(N2CCCC2)c(C(=O)NC2CCCCC2)c1	-20% (inactive)
CN(C)CCCN(Cc1cc2ccccc2[nH]c1=O)C(=O)NCc1ccccc1	0% (inactive)
CN(C)S(=O)(=O)c1ccc(N2CCCC2)c(C(=O)Nc2ccccc2Cl)c1	5.18% (inactive)
CCCNS(=O)(=O)c1cccc(C(=O)OCc2cc(=O)oc3cc(OC)ccc23)c1	-91.2% (inactive)
